Laboratory results from ChEMBL document CHEMBL1201862, “PubChem BioAssay data set” (2004).
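Cells were grown in 96-well plates and exposed to each compound for 48 hours at five concentrations; endpoints were interpolated linearly between bracketing concentrations, or set to the highest concentration if not reached. GI50 is the concentration that inhibits growth by half.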 Active and inactive are the calls of the source. Cut-off read from the data, not from the text of the source: active = GI50 up to about 1.1 µM and inactive = higher.

Tests used:
Assay in all cases: inhibition of tumour cell growth, NCI panel, 48 h
U-251 = test system: U-251
MCF7 = test system: MCF7
MDA-MB-231 = test system: MDA-MB-231
IGROV-1 = test system: IGROV-1
MOLT-4 = test system: MOLT-4
TK-10 = test system: TK-10
CCRF-CEM = test system: CCRF-CEM
SK-OV-3 = test system: SK-OV-3
MDA-MB-435 = test system: MDA-MB-435
RPMI-8226 = test system: RPMI-8226
SF-268 = test system: SF-268
HL-60 = test system: HL-60
HT-29 = test system: HT-29
SNB-75 = test system: SNB-75
Hs-578T = test system: Hs-578T
786-0 = test system: 786-0
UACC-62 = test system: UACC-62
SNB-19 = test system: SNB-19
CAKI-1 = test system: CAKI-1
SN12C = test system: SN12C
HOP-92 = test system: HOP-92
SK-MEL-28 = test system: SK-MEL-28
K562 = test system: K562
OVCAR-8 = test system: OVCAR-8
SK-MEL-5 = test system: SK-MEL-5
HOP-62 = test system: HOP-62
M14 = test system: M14
EKVX = test system: EKVX
LOX IMVI = test system: LOX IMVI
DU-145 = test system: DU-145
SK-MEL-2 = test system: SK-MEL-2
A549 = test system: A549
HCT-15 = test system: HCT-15
MDA-N = test system: MDA-N
ACHN = test system: ACHN
UACC-257 = test system: UACC-257
SW-620 = test system: SW-620
A498 = test system: A498
OVCAR-5 = test system: OVCAR-5
SR = test system: SR
PC-3 = test system: PC-3
HCT-116 = test system: HCT-116
KM12 = test system: KM12
NCI-H226 = test system: NCI-H226
OVCAR-4 = test system: OVCAR-4
UO-31 = test system: UO-31
HCC 2998 = test system: HCC 2998
NCI/ADR-RES = test system: NCI/ADR-RES
T47D = test system: T47D
NCI-H522 = test system: NCI-H522
COLO 205 = test system: COLO 205
NCI-H460 = test system: NCI-H460
SF-295 = test system: SF-295
NCI-H23 = test system: NCI-H23
SF-539 = test system: SF-539
Malme-3M = test system: Malme-3M
RXF 393 = test system: RXF 393

Measured: GI50

CCCCCCCCCCCCCCCCCc1nc(C#N)c(N)o1
inactive: U-251 44.2 µM | MCF7 > 100 µM | MDA-MB-231 21 µM | IGROV-1 12.1 µM | MOLT-4 5.06 µM | TK-10 > 100 µM | CCRF-CEM 2.28 µM | SK-OV-3 > 100 µM | MDA-MB-435 > 100 µM | RPMI-8226 5.27 µM | SF-268 33.2 µM | HL-60 3.53 µM | HT-29 > 100 µM | SNB-75 21.4 µM | Hs-578T 20.8 µM | 786-0 23.3 µM | UACC-62 > 100 µM | SNB-19 73.8 µM | CAKI-1 19.9 µM | SN12C 61 µM | HOP-92 74.5 µM | SK-MEL-28 > 100 µM | K562 22.7 µM | OVCAR-8 13.8 µM | SK-MEL-5 > 100 µM | HOP-62 > 100 µM | M14 98.6 µM | EKVX > 100 µM | LOX IMVI 54.3 µM | DU-145 > 100 µM | SK-MEL-2 > 100 µM | A549 > 100 µM | MDA-N > 100 µM | ACHN 96.6 µM | UACC-257 > 100 µM | SW-620 > 100 µM | A498 > 100 µM | OVCAR-5 73.1 µM | SR 7.89 µM | PC-3 24.4 µM | HCT-116 > 100 µM | KM12 23.5 µM
86.9 µM: HCT-15

C/N=C(\Nc1cccc(C(F)(F)F)c1)SCc1ccc(N=C=S)cc1
inactive: NCI-H226 19.8 µM | U-251 15.8 µM | OVCAR-4 13.3 µM | UO-31 15.1 µM | MDA-MB-231 11.2 µM | IGROV-1 16.4 µM | MOLT-4 11.5 µM | TK-10 11.4 µM | CCRF-CEM 23.4 µM | SK-OV-3 20.2 µM | MDA-MB-435 13.8 µM | HCC 2998 15.6 µM | RPMI-8226 5.92 µM | SF-268 31.2 µM | HL-60 40.6 µM | HT-29 15.6 µM | SNB-75 14.2 µM | Hs-578T 14.7 µM | NCI/ADR-RES 22.1 µM | 786-0 16.4 µM | UACC-62 11.8 µM | T47D 13.8 µM | SNB-19 14.9 µM | CAKI-1 16.5 µM | SN12C 13.8 µM | HOP-92 14.7 µM | SK-MEL-28 21 µM | K562 20 µM | OVCAR-8 19.6 µM | NCI-H522 10.4 µM | SK-MEL-5 16.3 µM | COLO 205 16.6 µM | HOP-62 17.5 µM | NCI-H460 12.9 µM | EKVX 20.2 µM | LOX IMVI 4.66 µM | DU-145 17.4 µM | SK-MEL-2 12.3 µM | A549 18.1 µM | SF-295 16 µM | NCI-H23 16.3 µM | MDA-N 14.8 µM | ACHN 15.2 µM | SF-539 17.5 µM | UACC-257 14.3 µM | SW-620 20.2 µM | A498 19.9 µM | OVCAR-5 16.5 µM | Malme-3M 14.7 µM | RXF 393 13.4 µM | SR 4.34 µM | PC-3 15.9 µM | HCT-116 15.5 µM | KM12 15.4 µM
7.14 µM: HCT-15
